Data reported in US20060228297A1, “Thorium-227 for use in radiotherapy of soft tissue disease” (priority 2003, published 2006).

System: patients with metastases to the skeleton from breast or prostate cancer
Test: Phase IA/IB trials of ^223Ra, single and repeated injection, safety and tolerance (Example 9)
Assay type: in vivo, humans
Experimental: The experiment of Example 8 was carried out with dose metering calibrated to a high accuracy. Dose levels measured at 46, 93, 163, 213, and 250 kBq/kg of ^223Ra were given as single doses and a multiple-dose schedule was also introduced.
Thirty-one patients with metastases to the skeleton, 10 from breast- and 21 from prostate cancer, all, were enrolled in phase IA and phase IB trials. The prostate cancer patients were from 60 to 85 years and had body weights ranging from 50 to 120 kg. All of them had progressive disease considered hormone refractory. The breast cancer patients were from 40 to 70 years, with bodyweight from 50 to 95 kg. All of them were progressing second hormonal and/or chemotherapy. The primary objective was to evaluate the safety and tolerance of ^223Ra.
The follow up period was 8 weeks.
In the single injection trial the following average dose levels were used; 46, 93, 163, 213, and 250-kBq kg^−1 bodyweight (b.w.). Five patients were included at each dose level. Fifteen prostate- and 10 breast cancer patients were included.
In the repeated injection schedule, 6 patients, all with prostate cancer, were included. Three patients were scheduled to receive 5 doses, each of 50 kBq kg^−1 b.w. at three-weeks intervals, and three patients to receive 2 doses, each of 125 kBq kg−1 b.w. at six-weeks intervals.
Radium-223 was produced from ^227Ac/^227Th and purified using Ac-resin to immobilize ^227Ac and ^227Th as described in WO0040275. The product concentrate, i.e., dissolved ^223RaCl2 was tested for radionuclide purity by gamma spectroscopy before further use. A concentrate of the ^223Ra in NaCl and Na Citrate was sent sterile production. Isotonicity, pH, and activity concentration were adjusted; a sample kept aside for pathogen and pyrogen testing, and the final product was filled in sterile vials that were subsequently capped with a sealed rubber membrane penetrable to syringes. The vials were put into lead containers and shipped to the hospitals.
The effect of the radium-223 on neutrophil cell fractions, platelets, white-blood-cell count and Heamoglobin were monitored to give a wide ranging measure of haematological toxicity. […] The results were expressed as the number of patients in the study showing a particular level of toxicity on the CTC Toxicity Grade scale and are set out in Table 6 below.

[1] = Multiple dosing 2 × 125 kBq/kg, n = 3
[2] = Multiple dosing 5 × 50 kBq/kg, n = 3

## [223Ra] [^223Ra, radium-223]
[1]
  Haemoglobin, CTC Grade 0: number of patients: 0
  Haemoglobin, CTC Grade 1: number of patients: 1
  Haemoglobin, CTC Grade 2: number of patients: 2
  Neutrophile, CTC Grade 0: number of patients: 3
  Neutrophile, CTC Grade 1: number of patients: 0
  Neutrophile, CTC Grade 2: number of patients: 0
  Neutrophile, CTC Grade 3: number of patients: 0
  Platelets, CTC Grade 0: number of patients: 3
  Platelets, CTC Grade 1: number of patients: 0
  W B C, CTC Grade 0: number of patients: 2
  W B C, CTC Grade 1: number of patients: 0
  W B C, CTC Grade 2: number of patients: 1
  W B C, CTC Grade 3: number of patients: 0
[2]
  Haemoglobin, CTC Grade 0: number of patients: 0
  Haemoglobin, CTC Grade 1: number of patients: 2
  Haemoglobin, CTC Grade 2: number of patients: 1
  Neutrophile, CTC Grade 0: number of patients: 1
  Neutrophile, CTC Grade 1: number of patients: 0
  Neutrophile, CTC Grade 2: number of patients: 2
  Neutrophile, CTC Grade 3: number of patients: 0
  Platelets, CTC Grade 0: number of patients: 2
  Platelets, CTC Grade 1: number of patients: 1
  W B C, CTC Grade 0: number of patients: 1
  W B C, CTC Grade 1: number of patients: 0
  W B C, CTC Grade 2: number of patients: 2
  W B C, CTC Grade 3: number of patients: 0
Re-treatment, n = 2
  Haemoglobin, CTC Grade 0: number of patients: 1
  Haemoglobin, CTC Grade 1: number of patients: 1
  Haemoglobin, CTC Grade 2: number of patients: 0
  Neutrophile, CTC Grade 0: number of patients: 2
  Neutrophile, CTC Grade 1: number of patients: 0
  Neutrophile, CTC Grade 2: number of patients: 0
  Neutrophile, CTC Grade 3: number of patients: 0
  Platelets, CTC Grade 0: number of patients: 2
  Platelets, CTC Grade 1: number of patients: 0
  W B C, CTC Grade 0: number of patients: 2
  W B C, CTC Grade 1: number of patients: 0
  W B C, CTC Grade 2: number of patients: 0
  W B C, CTC Grade 3: number of patients: 0
Single dose 46 kBq/kg, n = 5
  Haemoglobin, CTC Grade 0: number of patients: 4
  Haemoglobin, CTC Grade 1: number of patients: 0
  Haemoglobin, CTC Grade 2: number of patients: 1
  Neutrophile, CTC Grade 0: number of patients: 4
  Neutrophile, CTC Grade 1: number of patients: 0
  Neutrophile, CTC Grade 2: number of patients: 1
  Neutrophile, CTC Grade 3: number of patients: 0
  Platelets, CTC Grade 0: number of patients: 5
  Platelets, CTC Grade 1: number of patients: 0
  W B C, CTC Grade 0: number of patients: 4
  W B C, CTC Grade 1: number of patients: 0
  W B C, CTC Grade 2: number of patients: 1
  W B C, CTC Grade 3: number of patients: 0
Single dose 93 kBq/kg, n = 5
  Haemoglobin, CTC Grade 0: number of patients: 2
  Haemoglobin, CTC Grade 1: number of patients: 2
  Haemoglobin, CTC Grade 2: number of patients: 1
  Neutrophile, CTC Grade 0: number of patients: 3
  Neutrophile, CTC Grade 1: number of patients: 1
  Neutrophile, CTC Grade 2: number of patients: 1
  Neutrophile, CTC Grade 3: number of patients: 0
  Platelets, CTC Grade 0: number of patients: 5
  Platelets, CTC Grade 1: number of patients: 0
  W B C, CTC Grade 0: number of patients: 4
  W B C, CTC Grade 1: number of patients: 0
  W B C, CTC Grade 2: number of patients: 1
  W B C, CTC Grade 3: number of patients: 0
Single dose 163 kBq/kg, n = 5
  Haemoglobin, CTC Grade 0: number of patients: 4
  Haemoglobin, CTC Grade 1: number of patients: 0
  Haemoglobin, CTC Grade 2: number of patients: 1
  Neutrophile, CTC Grade 0: number of patients: 3
  Neutrophile, CTC Grade 1: number of patients: 0
  Neutrophile, CTC Grade 2: number of patients: 1
  Neutrophile, CTC Grade 3: number of patients: 1
  Platelets, CTC Grade 0: number of patients: 4
  Platelets, CTC Grade 1: number of patients: 1
  W B C, CTC Grade 0: number of patients: 3
  W B C, CTC Grade 1: number of patients: 0
  W B C, CTC Grade 2: number of patients: 1
  W B C, CTC Grade 3: number of patients: 1
Single dose 213 kBq/kg, n = 5
  Haemoglobin, CTC Grade 0: number of patients: 2
  Haemoglobin, CTC Grade 1: number of patients: 2
  Haemoglobin, CTC Grade 2: number of patients: 1
  Neutrophile, CTC Grade 0: number of patients: 2
  Neutrophile, CTC Grade 1: number of patients: 1
  Neutrophile, CTC Grade 2: number of patients: 2
  Neutrophile, CTC Grade 3: number of patients: 0
  Platelets, CTC Grade 0: number of patients: 5
  Platelets, CTC Grade 1: number of patients: 0
  W B C, CTC Grade 0: number of patients: 2
  W B C, CTC Grade 1: number of patients: 0
  W B C, CTC Grade 2: number of patients: 2
  W B C, CTC Grade 3: number of patients: 1
Single dose 250 kBq/kg, n = 5
  Haemoglobin, CTC Grade 0: number of patients: 2
  Haemoglobin, CTC Grade 1: number of patients: 3
  Haemoglobin, CTC Grade 2: number of patients: 0
  Neutrophile, CTC Grade 0: number of patients: 2
  Neutrophile, CTC Grade 1: number of patients: 0
  Neutrophile, CTC Grade 2: number of patients: 2
  Neutrophile, CTC Grade 3: number of patients: 1
  Platelets, CTC Grade 0: number of patients: 2
  Platelets, CTC Grade 1: number of patients: 3
  W B C, CTC Grade 0: number of patients: 2
  W B C, CTC Grade 1: number of patients: 0
  W B C, CTC Grade 2: number of patients: 2
  W B C, CTC Grade 3: number of patients: 1
All dose groups, total
  Reversible diarrhoea, grades 1 and 2, share of patients: approximately 50%
Dose escalating part, single dose 46 to 250 kBq/kg
  Dose-limiting toxicity: not observed
Even at the two highest dose levels
  Thrombocytes, toxicity grade: 1 grade
Highest dose group
  Vomiting, number of patients: four
Highest dose level
  Nausea, number of patients: four
Single injection trial
  Neutropenia of maximum grade 3, number of patients: two
Single injection, recovery during the follow-up period
  Reversible myelosuppression, nadir after injection: 2-3 weeks
Three patients in the 50×5 schedule
  Additional toxicity related to the repetition of the treatment: did not experience any additional toxicity
